Data published in PMC6539005, “Half-Wave Potentials and In Vitro Cytotoxic Evaluation of 3-Acylated 2,5-Bis(phenylamino)-1,4-benzoquinones on Cancer Cells” (Molecules, 2019).
Where two headings read alike, the source gives them in different places.

Tests used:
[1] = Half-wave potentials by cyclic voltammetry in acetonitrile; type: physicochemical; conditions: rt, Pt electrode, vs non-aqueous Ag/Ag+, given as negative of potential; for −E^I 1/2: first one-electron reduction, 0.1 M tetraethylammonium tetrafluoroborate; for −E^II 1/2: second one-electron reduction
Protocol: The members of the 3-acyl-2,5-bis(phenylamino)-1,4-benzoquinone series 2a–q were evaluated for their half-wave potentials (E^I 1/2 and E^II 1/2). They were measured by cyclic voltammetry in acetonitrile at room temperature, using a platinum electrode and 0.1 M tetraethylamoniumtetrafluoroborate as the supporting electrolyte. The voltammograms were run in the potential range from 0.0 to −2.0 V versus non-aqueous Ag/Ag^+.

T24 (bladder) cells = test: MTT cytotoxicity assay, T24; type: cell-based, human; conditions: 48 h incubation (b12: 72 h), n = 3, read-out: IC50 ± SEM T24
Protocol: (§1) The 3-acyl-2,5-bis(phenylamino)-1,4-benzoquinones 2a–q were evaluated for their in vitro cytotoxic activities against normal human embryonic kidney cells (HEK-293 cells) and two human cancer cell lines (T24 and DU-145 cells) in 72 h drug exposure assays. The cytotoxic activities of the new compounds were measured using conventional microculture tetrazolium reduction assays. The cytotoxic activities are expressed in terms of IC50. Doxorubicin, a clinically used anti-cancer agent, was taken as a positive control.
(§2) Human cancer cell lines T24 (bladder) and DU-145 (prostate), and non-tumor HEK-293 cells were obtained from the American Type Culture Collection (ATCC, Manassas, VA, USA). The cultures were maintained at a density of 1× 10^5 cells/mL and the medium was changed at 48- to 72-h intervals. They were cultured in high-glucose Dulbecco’s modified Eagle medium (Gibco, Grand Island, NY, USA) supplemented with 10% fetal calf serum, penicillin (100 U/mL), and streptomycin (100 μg/mL). All cultures were kept at 37 °C in 95% air/5% CO2 at 100% humidity. Phosphate-buffered saline (PBS) was purchased from Gibco. Cells were incubated at the indicated times at 37 °C, with or without quinones at various concentrations.
(§3) The cytotoxicity of the quinones was assessed by following the reduction of MTT (3-(4,5-Dimethylthiazol-2-yl)-2,5-diphenyltetrazolium bromide) to formazan blue. Cells were seeded into 96-well plates at a density of 10,000 cells/well for 24 h and then incubated for 48 h, with or without the quinone derivatives. Doxorubicin was used as the standard chemotherapeutic agent (positive control). Cells were then washed twice with warm PBS and incubated with MTT (0.5 mg/mL) for 2 hours at 37 °C. Blue formazan crystals were solubilized by adding 100 µL DMSO/well, and the optical density of the coloured solutions was subsequently read at 550 nm. Results are expressed as percentage of MTT reduction, compared to untreated control conditions. The IC50 values were calculated using the GraphPad Prism software (San Diego, CA, USA).

DU-145 (prostate) cells = test: MTT cytotoxicity assay, DU-145; type: cell-based; conditions: Homo sapiens, 48 h incubation (b12: 72 h), n = 3, read-out: IC50 ± SEM DU-145
Protocol: as §1, §2, §3

HEK-293 kidney cells = test: MTT cytotoxicity assay, HEK-293; type: cell-based; conditions: Homo sapiens, HEK293, non-tumor cells, 48 h incubation (b12: 72 h), n = 3, read-out: IC50 ± SEM HEK-293
Protocol: as §1, §2, §3

T24 and DU-145 cells = test: MTT cytotoxicity assay, both cancer cell lines; type: cell-based; conditions: Homo sapiens; mean of T24 and DU-145 IC50
Protocol: as §1, §2, §3

[2] = tested on: human colon adenocarcinoma; parameters: method as in PMID 3746824; conditions: cited from earlier work

Structure (SMILES) | −E^I 1/2 [1] [mV] | −E^II 1/2 [1] [mV] | IC50 (T24 (bladder) cells; Homo sapiens) [µM] | IC50 (DU-145 (prostate) cells) [µM] | IC50 (HEK-293 kidney cells) [µM] | IC50 (T24 and DU-145 cells) [µM] | IC50 (T24 (bladder) cells) [µM] | in vitro inhibitory activity against human colon adenocarcinoma proliferation [2]
COc1cc(NC2=CC(=O)C(Nc3cc(OC)c(OC)c(OC)c3)=C(C(=O)c3ccco3)C2=O)cc(OC)c1OC [2l, 3-(Furan-2-carbonyl)-2,5-bis-[(3,4,5-trimethoxyphenyl)amino]-1,4-benzoquinone] | 790 | 930 | 47.1 ± 2 | 23 ± 2.3 | 33 ± 4.8 | 35 |  | 
O=C1C=C(Nc2ccc(F)cc2)C(=O)C(C(=O)c2cccs2)=C1Nc1ccc(F)cc1 [2q, 3-(Thiophen-2-carbonyl)-2,5-bis-[(4-fluorophenyl)amino]-1,4-benzoquinone] | 730 | 980 | > 100 | > 100 | > 100 | > 100 |  | 
COc1cccc2c1C(=O)c1c(O)c3c(c(O)c1C2=O)C[C@@](O)(C(=O)CO)C[C@@H]3O[C@H]1C[C@H](N)[C@H](O)[C@H](C)O1 [DOX, Doxorubicin, reference compound] |  |  | 0.43 | 0.93 ± 0.06 |  | 0.69 | 0.46 ± 0.08 | 
COc1ccc(C(=O)C2=C(Nc3ccc(F)cc3)C(=O)C=C(Nc3ccc(F)cc3)C2=O)cc1 [2ñ, 3-(4-Methoxybenzoyl)-2,5-bis-[(4-fluorophenyl)amino]-1,4-benzoquinone] | 710 | 860 | > 100 | > 100 | > 100 | > 100 |  | 
COc1cc(NC2=CC(=O)C(Nc3cc(OC)c(OC)c(OC)c3)=C(C(=O)c3ccccc3)C2=O)cc(OC)c1OC [2i, 3-Benzoyl-2,5-bis-[(3,4,5-trimethoxyphenyl)amino]-1,4-benzoquinone] | 800 | 950 | > 100 | 92.9 ± 1.4 | > 100 | > 96.4 |  | 
COc1cc(C(=O)C2=C(Nc3ccc(F)cc3)C(=O)C=C(Nc3ccc(F)cc3)C2=O)ccc1O [2o, 3-(4-Hydroxy-3-methoxybenzoyl)-2,5-bis-[(4-fluorophenyl)amino]-1,4-benzoquinone] | 550 | 920 | > 100 | > 100 | > 100 | > 100 |  | 
CC(=O)C1=C(Nc2ccccc2)C(=O)C=C(Nc2ccccc2)C1=O [2a, 3-Acetyl-2,5-bis(phenylamino)-1,4-benzoquinone] | 565 | 1170 | > 100 | 96 ± 7.9 | > 100 | > 98 |  | 
O=C1C=C(Nc2ccccc2)C(=O)C=C1Nc1ccccc1 [A, 2,5-bis(phenylamino)benzoquinone] |  |  |  |  |  |  |  | good in vitro inhibitory activity
O=C1C=C(Nc2ccc(F)cc2)C(=O)C(C(=O)c2ccco2)=C1Nc1ccc(F)cc1 [2p, 3-(Furan-2-carbonyl)-2,5-bis-[(4-fluorophenyl)amino]-1,4-benzoquinone] | 680 | 950 | > 100 | 90 ± 6.4 | 72.8 ± 7 | > 95 |  | 
COc1ccc(C(=O)C2=C(Nc3cc(OC)c(OC)c(OC)c3)C(=O)C=C(Nc3cc(OC)c(OC)c(OC)c3)C2=O)cc1 [2j, 3-(4-Methoxybenzoyl)-2,5-bis-[(3,4,5-trimethoxyphenyl)amino]-1,4-benzoquinone] | 740 | 950 | 85.3 ± 1.9 | 72.4 ± 2.6 | 56.9 ± 5.2 | 78.8 |  | 
COc1cc(NC2=CC(=O)C(Nc3cc(OC)c(OC)c(OC)c3)=C(C(=O)c3cccs3)C2=O)cc(OC)c1OC [2m, 3-(Thiophen-2-carbonyl)-2,5-bis-[(3,4,5-trimethoxyphenyl)amino]-1,4-benzoquinone] | 850 | 1010 | 63.2 ± 0.6 | 48.6 ± 3 | 30.7 ± 3.1 | 55.9 |  | 
CCCC(=O)C1=C(Nc2ccccc2)C(=O)C=C(Nc2ccccc2)C1=O [2b, 3-Butiryl-2,5-bis(phenylamino)-1,4-benzoquinone] | 570 | 1150 | > 100 | 92.2 ± 8.7 | > 100 | > 96.1 |  | 
O=C1C=C(Nc2ccccc2)C(=O)C(C(=O)c2cccs2)=C1Nc1ccccc1 [2h, 3-(Thiophen-2-carbonyl)-2,5-bis(phenylamino)-1,4-benzoquinone] | 500 | 1030 | 75.6 ± 9.1 | 80.9 ± 9.7 | > 100 | 78.2 |  | 
O=C1C=C(Nc2ccccc2)C(=O)C(C(=O)c2ccco2)=C1Nc1ccccc1 [2g, 3-(Furan-2-carbonyl)-2,5-bis(phenylamino)-1,4-benzoquinone] | 570 | 870 | 40.2 ± 4 | 39.9 ± 3.6 | 61.7 ± 4.2 | 40 |  | 
COc1cc(C(=O)C2=C(Nc3cc(OC)c(OC)c(OC)c3)C(=O)C=C(Nc3cc(OC)c(OC)c(OC)c3)C2=O)ccc1O [2k, 3-(4-Hydroxy-3-methoxybenzoyl)-2,5-bis-[(3,4,5-trimethoxyphenyl)amino]-1,4-benzoquinone] | 610 | 1010 | > 100 | 45.9 ± 3.2 | 28.3 ± 1.5 | > 72.9 |  | 
COc1ccc(C(=O)C2=C(Nc3ccccc3)C(=O)C=C(Nc3ccccc3)C2=O)cc1OC [2e, 3-(3,4-Dimethoxybenzoyl)-2,5-bis(phenylamino)-1,4-benzoquinone] | 560 | 1140 | 58.2 ± 7.1 | 47.7 ± 4.2 | > 100 | 52.9 |  | 
COc1cc(C(=O)C2=C(Nc3ccccc3)C(=O)C=C(Nc3ccccc3)C2=O)cc(OC)c1OC [2f, 3-(3,4,5-Trimethoxybenzoyl)-2,5-bis(phenylamino)-1,4-benzoquinone] | 560 | 1120 | 51.8 ± 6.2 | 20.4 ± 2.1 | 85.8 ± 0.9 | 36.1 |  | 
O=C1C=C(Nc2ccc(F)cc2)C(=O)C(C(=O)c2ccccc2)=C1Nc1ccc(F)cc1 [2n, 3-Benzoyl-2,5-bis-[(4-fluorophenyl)amino]-1,4-benzoquinone] | 560 | 1040 | 74.5 ± 2.2 | > 100 | > 100 | > 87.2 |  | 
